Test results reported in US20250375544A1, “DUAL MODE RADIOTRACER AND -THERAPEUTICS” (TECHNISCHE UNIVERSITÄT MÜNCHEN, priority 2021, published 2025).

How the values were obtained:
[1] = ^177Lu-labeled compound, n = 6
[2] = test system: LNCaP tumor xenograft-bearing CB17-SCID mice; test: Biodistribution in LNCaP tumor xenograft-bearing CB17-SCID mice

With `CC(C)(C)[Si](F)(c1ccc(C(=O)NC[C@@H](NC(=O)CN2CCN(CC(=O)[O-])CCN(CC(=O)[O-])CCN(CC(=O)[O-])CC2)C(=O)N[C@H](CCCCNC(=O)CCC(=O)NCCC[C@@H](NC(=O)CC[C@H](NC(=O)O[C@@H](CCC(=O)O)C(=O)O)C(=O)O)C(=O)O)C(=O)O)cc1)C(C)(C)C.[177Lu+3]` [[^177Lu]Lu-3, [^177Lu]Lu-Carbamate I] the “log D” value [1] was −3.40±0.45, the “Biodistribution Adrenals” value ([2]; 1 h p.i.) was 1.46 ± 0.70 % ID/g and the “Biodistribution Blood” value ([2]; 1 h p.i.) was 0.97 ± 0.18 % ID/g. The “Biodistribution Bone” value ([2]; 1 h p.i.) was 0.18 ± 0.02 % ID/g, the “Biodistribution Heart” value ([2]; 1 h p.i.) was 0.36 ± 0.04 % ID/g and the “Biodistribution Intestine” value ([2]; 1 h p.i.) was 0.36 ± 0.17 % ID/g. The “Biodistribution Kidneys” value ([2]; 1 h p.i.) was 61.8±25.9 % ID/g, the “Biodistribution Liver” value ([2]; 1 h p.i.) was 0.87 ± 0.28 % ID/g and the “Biodistribution Lung” value ([2]; 1 h p.i.) was 2.88 ± 2.96 % ID/g. For the same molecule, the “Biodistribution Muscle” value ([2]; 1 h p.i.) was 0.13 ± 0.04 % ID/g, the “Biodistribution Pancreas” value ([2]; 1 h p.i.) was 0.25 ± 0.06 % ID/g and the “Biodistribution Parotid gland” value ([2]; 1 h p.i.) was 0.62 ± 0.20 % ID/g. The “Biodistribution Spleen” value ([2]; 1 h p.i.) was 2.51 ± 0.95 % ID/g, the “Biodistribution Stomach” value ([2]; 1 h p.i.) was 0.30 ± 0.09 % ID/g and the “Biodistribution Submandibular gland” value ([2]; 1 h p.i.) was 0.37 ± 0.08 % ID/g. For the same molecule, the “Biodistribution Tumor” value ([2]; 1 h p.i.) was 5.31±0.94 % ID/g, the “Ratio Tumor-to-blood” value ([2]; 1 h p.i.) was 5.57 ± 1.18 and the “Ratio Tumor-to-kidney” value ([2]; 1 h p.i.) was 0.09 ± 0.03. The “Ratio Tumor-to-liver” value ([2]; 1 h p.i.) was 6.61 ± 2.19, the “Ratio Tumor-to-muscle” value ([2]; 1 h p.i.) was 44.1 ± 9.0 and the “Ratio Tumor-to-parotid gland” value ([2]; 1 h p.i.) was 9.09 ± 3.13. For the same molecule, the “Ratio Tumor-to-submandibular gland” value ([2]; 1 h p.i.) was 14.7 ± 3.5, the “tumor-to-submandibularis and -parotidea ratios at 1 h p.i. compared to respective values at 24 h p.i.” value ([2]; 1 h p.i. vs 24 h p.i.) was “two-fold lower” and the “Biodistribution Adrenals” value ([2]; 24 h p.i.) was 0.04 ± 0.01 % ID/g. The “Biodistribution Blood” value ([2]; 24 h p.i.) was 0.00 ± 0.00 % ID/g, the “Biodistribution Bone” value ([2]; 24 h p.i.) was 0.02 ± 0.01 % ID/g and the “Biodistribution Heart” value ([2]; 24 h p.i.) was 0.02 ± 0.01 % ID/g. For the same molecule, the “Biodistribution Intestine” value ([2]; 24 h p.i.) was 0.12 ± 0.06 % ID/g, the “Biodistribution Kidneys” value ([2]; 24 h p.i.) was 0.31 ± 0.05 % ID/g and the “Biodistribution Liver” value ([2]; 24 h p.i.) was 0.13 ± 0.05 % ID/g. For the same molecule, the “Biodistribution Lung” value ([2]; 24 h p.i.) was 0.03 ± 0.01 % ID/g, the “Biodistribution Muscle” value ([2]; 24 h p.i.) was 0.01 ± 0.01 % ID/g and the “Biodistribution Pancreas” value ([2]; 24 h p.i.) was 0.02 ± 0.01 % ID/g. For the same molecule, the “Biodistribution Parotid gland” value ([2]; 24 h p.i.) was 0.04 ± 0.02 % ID/g, the “Biodistribution Spleen” value ([2]; 24 h p.i.) was 0.09 ± 0.01 % ID/g and the “Biodistribution Stomach” value ([2]; 24 h p.i.) was 0.06 ± 0.04 % ID/g. The “Biodistribution Submandibular gland” value ([2]; 24 h p.i.) was 0.03 ± 0.01 % ID/g, the “Biodistribution Tumor” value ([2]; 24 h p.i.) was 1.20 ± 0.55 % ID/g and the “Ratio Tumor-to-blood” value ([2]; 24 h p.i.) was 947 ± 652. The “Ratio Tumor-to-kidney” value ([2]; 24 h p.i.) was 3.80 ± 1.36, the “Ratio Tumor-to-liver” value ([2]; 24 h p.i.) was 8.94 ± 2.94 and the “Ratio Tumor-to-muscle” value ([2]; 24 h p.i.) was 127 ± 92. The “Ratio Tumor-to-parotid gland” value ([2]; 24 h p.i.) was 31.8 ± 9.3 and the “Ratio Tumor-to-submandibular gland” value ([2]; 24 h p.i.) was 34.5 ± 9.2.
